Assay results as given in US20170334899A1, “AMINO-SUBSTITUTED ISOTHIAZOLES” (Bayer Pharma Aktiengesellschaft, priority 2014, published 2017).

Columns and labels:
[1] = system: human cervical tumor cell line HeLa (ATCC CCL-2); experiment: SAC-Formation - Paclitaxel-Induced Assay; format: cell-based; settings: 24 h, HeLa cells, paclitaxel 0.05 μM, test range 0.005 μM-20 μM, read-out: IC50 [mol/l] SAC-Formation - Paclitaxel-Induced Assay
Procedure, shortened: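 Read-out is high-content imaging of anti-phospho-H3 Ser10 (mitosis) and Hoechst 33342 (DNA, cell number), with decreased mitotic fraction marking checkpoint breakthrough. Compounds (0.005–20 μM) and 0.05 μM paclitaxel co-added to overnight-plated HeLa for 24 h at 37° C; four-parameter Hill fit.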

[2] = system: human cervical tumor cell line HeLa (ATCC CCL-2); experiment: SAC-Formation - Nocodazole-Induced Assay; format: cell-based; settings: Homo sapiens, HeLa, 24 h, HeLa cells, nocodazole 0.1 μg/ml together with test compound, decrease of mitotic cells (phospho-histone H3 Ser10)
Procedure, shortened: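 Loss of phospho-histone H3 Ser10-positive cells, counted against Hoechst-stained nuclei by high-content imaging, marked mitotic breakthrough. Compounds (0.005–20 μM, 0.5% DMSO) were co-dosed with 0.1 μg/ml nocodazole onto HeLa cells for 24 h at 37 °C. Curves were fitted with a four-parameter Hill equation.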

SMILES | IC50 ([1]; Homo sapiens, HeLa) | IC50 [2] | IC50 [1]
Cc1nsc(Nc2cnc(C(F)(F)F)cn2)c1C(=O)Nc1ccc(OC[C@@H]2CCCN(CC(F)(F)F)C2)nc1 [Example 376, 3-methyl-N-(6-{[(3R)-1-(2,2,2-trifluoroethyl)piperidin-3-yl]methoxy}pyridin-3-yl)-5-{[5-(trifluoromethyl)pyrazin-2-yl]amino}-1,2-thiazole-4-carboxamide] | 44 nM | 50 nM | –
Cc1nsc(Nc2cnc(C(F)(F)F)cn2)c1C(=O)Nc1ccc(OCC2CCN(CC(F)(F)F)CC2(F)F)nc1 (stereo not shown) [Example 392, N-(6-{[3,3-difluoro-1-(2,2,2-trifluoroethyl)piperidin-4-yl]methoxy}pyridin-3-yl)-3-methyl-5-{[5-(trifluoromethyl)pyrazin-2-yl]amino}-1,2-thiazole-4-carboxamide] | 30 nM | 74 nM | 27 nM
Cc1nsc(Nc2cnc(C(F)(F)F)cn2)c1C(=O)Nc1ccc(O[C@@H]2CCN(CC(F)F)C[C@H]2F)nc1 [Example 366, N-(6-{[(3R,4R)-1-(2,2-difluoroethyl)-3-fluoropiperidin-4-yl]oxy}pyridin-3-yl)-3-methyl-5-{[5-(trifluoromethyl)pyrazin-2-yl]amino}-1,2-thiazole-4-carboxamide] | 98 nM | 58 nM | –
Cc1nsc(Nc2cnc(C(F)(F)F)cn2)c1C(=O)Nc1ccc(OCC2CCN(CC(F)F)CC2)nc1 [Example 345, N-(6-{[1-(2,2-difluoroethyl)piperidin-4-yl]methoxy}pyridin-3-yl)-3-methyl-5-{[5-(trifluoromethyl)pyrazin-2-yl]amino}-1,2-thiazole-4-carboxamide] | 21 nM | 28 nM | –
Cc1nsc(Nc2cnc(C(F)(F)F)cn2)c1C(=O)Nc1ccc(OCCCN(C)CC(F)F)nc1 [Example 353, N-(6-{3-[(2,2-difluoroethyl)(methyl)amino]propoxy}pyridin-3-yl)-3-methyl-5-{[5-(trifluoromethyl)pyrazin-2-yl]amino}-1,2-thiazole-4-carboxamide] | 150 nM | 96 nM | –
Cc1nsc(Nc2cnc(C(F)(F)F)cn2)c1C(=O)Nc1ccc(OCCNCCC(F)(F)F)nc1 [Example 323, 3-methyl-5-{[5-(trifluoromethyl)pyrazin-2-yl]amino}-N-(6-{2-[(3,3,3-trifluoropropyl)amino]ethoxy}pyridin-3-yl)-1,2-thiazole-4-carboxamide] | 800 nM | 30 nM | –
Cc1nsc(Nc2cnc(C(F)(F)F)cn2)c1C(=O)Nc1ccc(OC[C@@H]2CCCN(CCC(F)(F)F)C2)nc1 [Example 377, 3-methyl-5-{[5-(trifluoromethyl)pyrazin-2-yl]amino}-N-(6-{[(3R)-1-(3,3,3-trifluoropropyl)piperidin-3-yl]methoxy}pyridin-3-yl)-1,2-thiazole-4-carboxamide] | 88 nM | 40 nM | –
Cc1nsc(Nc2cnc(C(F)(F)F)cn2)c1C(=O)Nc1ccc(O[C@@H]2CCN(CC(F)(F)F)C2)nc1 [Example 380, 3-methyl-N-(6-{[(3R)-1-(2,2,2-trifluoroethyl)pyrrolidin-3-yl]oxy}pyridin-3-yl)-5-{[5-(trifluoromethyl)pyrazin-2-yl]amino}-1,2-thiazole-4-carboxamide] | 330 nM | 340 nM | –
Cc1nsc(Nc2cnc(C(F)(F)F)cn2)c1C(=O)Nc1ccc(OCCCN(C)CCC(F)(F)F)nc1 [Example 355, 3-methyl-N-(6-{3-[methyl(3,3,3-trifluoropropyl)amino]propoxy}pyridin-3-yl)-5-{[5-(trifluoromethyl)pyrazin-2-yl]amino}-1,2-thiazole-4-carboxamide] | 190 nM | 150 nM | –
Cc1nsc(Nc2cnc3ccccc3n2)c1C(=O)Nc1ccc(OC2CCCN(C(=O)OC(C)(C)C)C2)nc1 (stereo not shown) [Example 31, tert-Butyl 3-{[5-({[3-methyl-5-(quinoxalin-2-ylamino)-1,2-thiazol-4-yl]carbonyl}-amino)pyridin-2-yl]oxy}piperidine-1-carboxylate] | 610 nM | 220 nM | –
Cc1nsc(Nc2cnc(C(F)(F)F)cn2)c1C(=O)Nc1ccc(OCC2CCN(CC(F)(F)F)CC2)nc1 [Example 346, 3-methyl-N-(6-{[1-(2,2,2-trifluoroethyl)piperidin-4-yl]methoxy}pyridin-3-yl)-5-{[5-(trifluoromethyl)pyrazin-2-yl]amino}-1,2-thiazole-4-carboxamide] | 32 nM | 33 nM | –
Cc1nsc(Nc2cnc(C(F)(F)F)cn2)c1C(=O)Nc1ccc(O[C@H]2CCN(CCC(F)(F)F)C[C@@H]2F)nc1 [Example 364, N-(6-{[(3S,4S)-3-fluoro-1-(3,3,3-trifluoropropyl)piperidin-4-yl]oxy}pyridin-3-yl)-3-methyl-5-{[5-(trifluoromethyl)pyrazin-2-yl]amino}-1,2-thiazole-4-carboxamide] | 40 nM | 12 nM | –
Cc1nsc(Nc2cnc(C(F)(F)F)cn2)c1C(=O)Nc1ccc(N2CCN(CC(F)(F)F)CC2)cn1 [Example 373, 3-methyl-N-{5-[4-(2,2,2-trifluoroethyl)piperazin-1-yl]pyridin-2-yl}-5-{[5-(trifluoromethyl)pyrazin-2-yl]amino}-1,2-thiazole-4-carboxamide] | 190 nM | 260 nM | –
Cc1nsc(Nc2cnc(C(F)(F)F)cn2)c1C(=O)Nc1ccc(O[C@H]2CCN(CC(F)F)C2)nc1 [Example 382, N-(6-{[(3S)-1-(2,2-difluoroethyl)pyrrolidin-3-yl]oxy}pyridin-3-yl)-3-methyl-5-{[5-(trifluoromethyl)pyrazin-2-yl]amino}-1,2-thiazole-4-carboxamide] | 45 nM | 24 nM | –
Cc1nsc(Nc2ccc(C#N)cn2)c1C(=O)Nc1ccc(OC2CCN(CC(F)(F)F)CC2)nc1 [Example 30, 5-[(5-Cyanopyridin-2-yl)amino]-3-methyl-N-(6-{[1-(2,2,2-trifluoroethyl)piperidin-4-yl]oxy}pyridin-3-yl)-1,2-thiazole-4-carboxamide] | 420 nM | 620 nM | –

Further compounds by falling IC50 ([1]; Homo sapiens, HeLa), results first:

IC50 ([1]; Homo sapiens, HeLa) | IC50 [2] | IC50 [1] | SMILES
870 nM | 71 nM | – | Cc1nsc(Nc2cnc(C(F)(F)F)cn2)c1C(=O)Nc1ccc(OC2CCN(C(CF)CF)CC2)nc1 [Example 324, N-(6-{[1-(1,3-difluoropropan-2-yl)piperidin-4-yl]oxy}pyridin-3-yl)-3-methyl-5-{[5-(trifluoromethyl)pyrazin-2-yl]amino}-1,2-thiazole-4-carboxamide]
250 nM | 50 nM | – | Cc1nsc(Nc2cnc(C(F)(F)F)cn2)c1C(=O)Nc1ccc(CCC2CCN(CC(F)F)CC2)nc1 [Example 356, N-(6-{2-[1-(2,2-difluoroethyl)piperidin-4-yl]ethyl}pyridin-3-yl)-3-methyl-5-{[5-(trifluoromethyl)pyrazin-2-yl]amino}-1,2-thiazole-4-carboxamide]
210 nM | 98 nM | – | Cc1nsc(Nc2cnc(C(F)(F)F)cn2)c1C(=O)Nc1ccc(OCCN(C)CCC(F)(F)F)nc1 [Example 351, 3-methyl-N-(6-{2-[methyl(3,3,3-trifluoropropyl)amino]ethoxy}pyridin-3-yl)-5-{[5-(trifluoromethyl)pyrazin-2-yl]amino}-1,2-thiazole-4-carboxamide]
200 nM | 73 nM | – | Cc1nsc(Nc2cnc(C(F)(F)F)cn2)c1C(=O)Nc1ccc(OC2CCCN(C(CF)CF)C2)nc1 (stereo not shown) [Example 333, N-(6-{[1-(1,3-difluoropropan-2-yl)piperidin-3-yl]oxy}pyridin-3-yl)-3-methyl-5-{[5-(trifluoromethyl)pyrazin-2-yl]amino}-1,2-thiazole-4-carboxamide]
61 nM | 49 nM | – | Cc1nsc(Nc2cnc(C(F)(F)F)cn2)c1C(=O)Nc1ccc(F)c(OCC2CCCN(CCF)C2)c1 (stereo not shown) [Example 336, N-(4-fluoro-3-{[1-(2-fluoroethyl)piperidin-3-yl]methoxy}phenyl)-3-methyl-5-{[5-(trifluoromethyl)pyrazin-2-yl]amino}-1,2-thiazole-4-carboxamide]
57 nM | 41 nM | – | Cc1nsc(Nc2cnc(C(F)(F)F)cn2)c1C(=O)Nc1ccc(O[C@@H]2CCCN(CC(F)(F)F)C2)nc1 [Example 386, 3-methyl-N-(6-{[(3R)-1-(2,2,2-trifluoroethyl)piperidin-3-yl]oxy}pyridin-3-yl)-5-{[5-(trifluoromethyl)pyrazin-2-yl]amino}-1,2-thiazole-4-carboxamide]
27 nM | 27 nM | – | Cc1nsc(Nc2cnc(C(F)(F)F)cn2)c1C(=O)Nc1ccc(O[C@H]2CCN(CC(F)(F)F)C2)nc1 [Example 383, 3-methyl-N-(6-{[(3S)-1-(2,2,2-trifluoroethyl)pyrrolidin-3-yl]oxy}pyridin-3-yl)-5-{[5-(trifluoromethyl)pyrazin-2-yl]amino}-1,2-thiazole-4-carboxamide]
23 nM | 6.2 nM | – | Cc1nsc(Nc2cnc(C(F)(F)F)cn2)c1C(=O)Nc1ccc(OC2CCCN(CC(F)(F)F)C2)nc1 (stereo not shown) [Example 331, 3-methyl-N-(6-{[1-(2,2,2-trifluoroethyl)piperidin-3-yl]oxy}pyridin-3-yl)-5-{[5-(trifluoromethyl)pyrazin-2-yl]amino}-1,2-thiazole-4-carboxamide]
12 nM | 40 nM | – | Cc1nsc(Nc2cnc(C(F)(F)F)cn2)c1C(=O)Nc1ccc(F)c(OC[C@@H]2CCN(CC(F)(F)F)C2)c1 [Example 339, N-(4-fluoro-3-{[(3R)-1-(2,2,2-trifluoroethyl)pyrrolidin-3-yl]methoxy}phenyl)-3-methyl-5-{[5-(trifluoromethyl)pyrazin-2-yl]amino}-1,2-thiazole-4-carboxamide]
